According to patent US20260028390A1, “ALPHA1-ANTITRYPSIN FOR USE IN THE TREATMENT OF DISEASES OR DISORDERS OF THE NERVOUS SYSTEM SUCH AS CHRONIC INFLAMMATORY DEMYELINATING POLYNEUROPATHY” (Ageronix SA, priority 2022, published 2026):
“And” between values parts separate entries of the source, which are not always exact repeats. Equal values may be shown once.

How the values were obtained:
[1] = system: CMT1A mice B6.Cg-Tg(PMP22)C3Fbas/J; experiment: Grip strength, CMT mice treated with AAT 180 mg/kg/day sc; format: in vivo, mouse; conditions: 8 weeks old, CMT + hAAT 180 mg/kg/day SC, individual animal
[2] = system: CIDP mice; experiment: Sciatic nerve electrophysiology (CMAP, NCV), CIDP mouse model; format: in vivo; conditions: for Compound muscle action potential (Mean ± SD) / Nerve conduction velocity (Mean ± SD): CIDP mice; for Electrophysiology, Amplitude / Electrophysiology, Conduction velocity / Electrophysiology, T1 distal / Electrophysiology, T2 proximal: per mouse, listed as hAAT
Protocol: C57BL/6 mice were received at 8 weeks of age and housed under controlled conditions for the duration of the study. Three groups of 4 animals each were assigned to the following subcutaneous treatments twice daily at 7:00 AM and 7:00 PM for 2 weeks, from 20 to 35 days after the start of disease induction: • Wild type (WT) mice receiving the vehicle, 0.9% NaCl (positive control) • CIDP mice receiving the vehicle, 0.9% NaCl (negative control) • CIDP mice receiving human AAT (AAT), 50 mg/kg per injection
Disease induction consisted in subcutaneous injection of mouse sciatic nerve homogenate in phosphate buffer saline (PBS)+Freund's adjuvant mixture at 10 mL/kg. For each treatment, 3 different body sites injections were performed. Control mice also received three subcutaneous injections of PBS+Freund's adjuvant at the same 3 different body sites.
On the first (Day 20) and last (Day 35) day of treatment, the neuromuscular and performance of animals was tested with a rotarod test, grip test and a sensory test using the Von Frey filament test, as well as sciatic nerve electrophysiology test. After the last treatment at Day 35, these tests were repeated, animals were sacrificed and the left sciatic nerve was sampled for histological evaluation of the number and size of […].

[3] = Day 35, AAT 50 mg/kg sc twice daily

For alpha1-antitrypsin (AAT) protein, the “Grip strength, Mean/animal” value [1] was 4.83 NEWTONS and 2.73 NEWTONS and 2.97 NEWTONS and 4.09 NEWTONS and 5.05 NEWTONS and 7.59 NEWTONS and 5.53 NEWTONS and 5.68 NEWTONS, the “Grip strength, set 1” value [1] was 3.97 NEWTONS and 2.15 NEWTONS and 3.47 NEWTONS and 4.13 NEWTONS and 4.85 NEWTONS and 8.17 NEWTONS and 6.20 NEWTONS and 4.87 NEWTONS and the “Grip strength, set 2” value [1] was 5.37 NEWTONS and 4.34 NEWTONS and 2.22 NEWTONS and 4.58 NEWTONS and 3.84 NEWTONS and 5.69 NEWTONS and 4.40 NEWTONS and 5.39 NEWTONS. The “Grip strength, set 3” value [1] was 5.14 NEWTONS and 1.69 NEWTONS and 3.21 NEWTONS and 3.55 NEWTONS and 6.47 NEWTONS and 8.92 NEWTONS and 5.99 NEWTONS and 6.77 NEWTONS, the “NCV compared to the vehicle treated group” value ([2]; CIDP + AAT 50 mg/kg sc twice daily) was “increase” and the “CMAP amplitude compared to the CIDP+vehicle treated group” value ([2]; CIDP + AAT 50 mg/kg sc twice daily, Day 35) was “increase”. The “Compound muscle action potential (Mean ± SD)” value ([2]; Day 20 (baseline)) was 3.73 ± 0.42 mV, the “Nerve conduction velocity (Mean ± SD)” value ([2]; Day 20 (baseline)) was 13.10 ± 4.49 m/s and the “Compound muscle action potential (Mean ± SD)” value [2, 3] was 4.56 ± 0.76 mV. The “Nerve conduction velocity (Mean ± SD)” value [2, 3] was 16.85 ± 2.43 m/s, the “Electrophysiology, Amplitude, group MEAN” value ([2]; Day 20) was 3.731 mV and the “Electrophysiology, Conduction velocity, group MEAN” value ([2]; Day 20) was 13.098 m/s. The “Electrophysiology, Amplitude, group MEAN” value ([2]; Day 35) was 4.558 mV, the “Electrophysiology, Conduction velocity, group MEAN” value ([2]; Day 35) was 16.851 m/s and the “Electrophysiology, Amplitude” value ([2]; Day 20) was 3.734 mV and 3.562 mV and 3.318 mV and 4.308 mV. For the same substance, the “Electrophysiology, Conduction velocity” value ([2]; Day 20) was 16.096 m/s and 11.057 m/s and 7.775 m/s and 17.463 m/s, the “Electrophysiology, T1 distal” value ([2]; Day 20) was 2.673 ms and 3.177 ms and 2.864 ms and 3.114 ms and the “Electrophysiology, T2 proximal” value ([2]; Day 20) was 3.605 ms and 4.533 ms and 4.793 ms and 3.973 ms. For the same substance, the “Electrophysiology, Amplitude” value ([2]; Day 35) was 3.490 mV and 5.146 mV and 5.068 mV and 4.527 mV, the “Electrophysiology, Conduction velocity” value ([2]; Day 35) was 16.007 m/s and 16.112 m/s and 14.881 m/s and 20.402 m/s and the “Electrophysiology, T1 distal” value ([2]; Day 35) was 4.089 ms and 3.902 ms and 4.177 ms and 3.970 ms. The “Electrophysiology, T2 proximal” value ([2]; Day 35) was 5.026 ms and 4.833 ms and 5.185 ms and 4.705 ms.
